For orientation: inhibition means the percentage by which the read-out fell short of the control. Higher therefore signals a strong effect. What is called IC50 is the concentration that gives 50% inhibition.

Where only a bound is given, the exact number is not on record here.

This passage reports inhibition and IC50 results from ChEMBL document CHEMBL4251578, “Design, synthesis and biological evaluation of novel 2-aminobenzamides containing dithiocarbamate moiety as histone deacetylase inhibitors and potent antitumor agents” (Eur J Med Chem, 2018).

Test [1] concerns A-375. The test is described as follows: Antiproliferative activity against human A375 cells at 2 uM after 72 hrs by CCK-8 assay relative to control. It counts as functional. As to conditions: A-375, 72 h. (Tetrazolium assays rely on reduction of a dye to a coloured formazan, in cell work by metabolically active cells.)
Test [2] concerns HeLa. The test is described as follows: Antiproliferative activity against human HeLa cells at 8 uM after 72 hrs by CCK-8 assay relative to control. The class given is functional.
The test system of test [3] is A-375. The test is described as follows: Antiproliferative activity against human A375 cells after 72 hrs by CCK-8 assay. The class given is functional, cell-based. Conditions: A-375, 72 h.
Test [4] has as its system MGC-803. The test is described as follows: Antiproliferative activity against human MGC803 cells at 2 uM after 72 hrs by CCK-8 assay relative to control. The class given is functional. Conditions: MGC-803, 72 h.
Test [5] concerns MGC-803. Put plainly: Antiproliferative activity against human MGC803 cells after 72 hrs by CCK-8 assay. The class given is functional, cell-based. As to conditions: MGC-803, 72 h.
Test [6] deals with MGC-803. The test is described as follows: Antiproliferative activity against human MGC803 cells at 8 uM after 72 hrs by CCK-8 assay relative to control. As to conditions: MGC-803, 72 h. The class given is functional.
In test [7] the test system is HeLa. Put plainly: Antiproliferative activity against human HeLa cells at 2 uM after 72 hrs by CCK-8 assay relative to control. It counts as functional.
For the next test, the system named is NCI-H1299. Put plainly: Antiproliferative activity against human NCI-H1299 cells after 72 hrs by CCK-8 assay. It counts as functional, cell-based. Conditions: NCI-H1299, 72 h.
The subject of a further test is HCT-116. Put plainly: Antiproliferative activity against human HCT116 cells after 72 hrs by CCK-8 assay. It counts as functional, cell-based. Conditions: HCT-116, 72 h.
For test [8], the system named is A-375. Put plainly: Antiproliferative activity against human A375 cells at 8 uM after 72 hrs by CCK-8 assay relative to control. It counts as functional. Conditions: A-375, 72 h.
The subject of the next test is SMMC-7721. Put plainly: Antiproliferative activity against human SMMC7721 cells after 72 hrs by CCK-8 assay. Conditions: SMMC-7721, 72 h. It counts as functional, cell-based.
The test system of test [9] is HeLa. The test is described as follows: Antiproliferative activity against human HeLa cells after 72 hrs by CCK-8 assay. The class given is functional, cell-based.

Regarding `Nc1ccccc1NC(=O)c1ccc(CSC(=S)N2CCc3cc(Cl)ccc32)cc1`, the values for the inhibition at 2 µM in the test with A-375 [1], with MGC-803 [4] and with HeLa [7] were 31.9%, 57.7% and 40.1%, respectively. In addition, the inhibition at 8 µM in the test on HeLa [2] came to 65.1%; in the test on MGC-803 [6], 82.2%; in the test with A-375 [8], 82.3%. The IC50 stood at 5.28 µM in the test on A-375 [3]; 1.89 µM in the test with MGC-803 [5]; 3.28 µM in the test on NCI-H1299; 3.21 µM with HCT-116; 1.88 µM in the test on SMMC-7721.
In the case of `Nc1ccccc1NC(=O)c1ccc(CSC(=S)N2CCN(c3ccccc3)CC2)cc1`, the inhibition at 2 µM with A-375 [1] is 27.5%; with MGC-803 [4], 42.3%; in the test on HeLa [7], 62.2%. The inhibition at 8 µM in the test on HeLa [2] was 73.1%; with MGC-803 [6] it was 87.4%; in the test with A-375 [8], 88.6%. Also, the half-inhibitory concentration (IC50) in the test on A-375 [3] was 3.67 µM; in the test with MGC-803 [5] it was 2.14 µM; in the test with HeLa [9], 0.84 µM; in the test on NCI-H1299, 0.61 µM; in the test with HCT-116, 2.33 µM; in the test with SMMC-7721 it was 2.86 µM.
Take `Nc1ccccc1NC(=O)c1ccc(CSC(=S)N2CCc3ccccc32)cc1`: the results for the inhibition at 2 µM with A-375 [1], in the test on MGC-803 [4] and with HeLa [7] were 25.7%, 44% and 38%, respectively. The results for the inhibition at 8 µM in the test with HeLa [2], in the test with MGC-803 [6] and in the test on A-375 [8] were 67%, 87% and 85.4%, respectively. For the same compound, the IC50 in the test on A-375 [3] is 4.05 µM; in the test with MGC-803 [5], 2.3 µM; with HeLa [9], 3.45 µM; in the test with NCI-H1299 it was 2.9 µM; in the test on HCT-116, 2.7 µM; in the test on SMMC-7721, 3.04 µM.
Turning to `CN(Cc1cccnc1)C(=S)SCc1ccc(C(=O)Nc2ccccc2N)cc1`, the inhibition at 2 µM in the test on A-375 [1] came to 39.4%; with MGC-803 [4], 45.9%; in the test on HeLa [7], 16.4%. For the same compound, the inhibition at 8 µM with HeLa [2] amounted to 68.7%; with MGC-803 [6], 85.5%; in the test with A-375 [8], 83.8%.
As to `CC(=O)Nc1ccc(C(=O)Nc2ccccc2N)cc1` [TACEDINALINE], the inhibition at 2 µM with A-375 [1] turned out to be 13.4%; in the test on MGC-803 [4] it was 9.5%; with HeLa [7], 7.3%. For the same compound, the figures for the inhibition at 8 µM with HeLa [2], with MGC-803 [6] and in the test with A-375 [8] were 24.3%, 22.4% and 33.5%, respectively. Also, the IC50 stood at 11.3 µM with A-375 [3], 18 µM in the test on HeLa [9] and 33.8 µM in the test with NCI-H1299.
`N#Cc1ccc(N2CCN(C(=S)SCc3ccc(C(=O)Nc4ccccc4N)cc3)CC2)cc1`: the figures for the inhibition at 2 µM in the test on A-375 [1], with MGC-803 [4] and in the test with HeLa [7] were 41.4%, 34.5% and 71.6%, respectively. The inhibition at 8 µM with HeLa [2] turned out to be 70.6%; in the test on MGC-803 [6], 37.6%; with A-375 [8], 62.9%.
Take `Nc1ccccc1NC(=O)c1ccc(CSC(=S)N2CCN(c3ccccc3F)CC2)cc1`: the inhibition at 2 µM in the test with A-375 [1] turned out to be 18.7%; in the test with MGC-803 [4], 33.7%; with HeLa [7], 17.5%. For the same compound, the inhibition at 8 µM is 59.2% in the test on HeLa [2], 86.4% with MGC-803 [6] and 79.5% with A-375 [8].
Consider `Nc1ccccc1NC(=O)c1ccc(CSC(=S)N2CCN(Cc3ccncc3)CC2)cc1`, for which the inhibition at 2 µM with A-375 [1] was determined as 33.1%; in the test on MGC-803 [4] it was 18.4%; in the test with HeLa [7] it was 59.5%. For the same compound, the figures for the inhibition at 8 µM in the test on HeLa [2], in the test on MGC-803 [6] and in the test on A-375 [8] were 72.9%, 79.3% and 89.5%, respectively.
Regarding `CN(C(=S)SCc1ccc(C(=O)Nc2ccccc2N)cc1)c1cccnc1`, the inhibition at 2 µM was determined as 26.5% with A-375 [1], 46.1% in the test with MGC-803 [4] and 16% in the test with HeLa [7]. For the same compound, the inhibition at 8 µM with HeLa [2] worked out at 70.5%; in the test with MGC-803 [6] it was 82.5%; with A-375 [8], 87.7%.
Regarding `CN1CCN(C(=S)SCc2ccc(C(=O)Nc3ccccc3N)cc2)CC1`, the inhibition at 2 µM was 36.6% in the test on A-375 [1], 29.6% in the test with MGC-803 [4] and 52.6% in the test with HeLa [7]. The inhibition at 8 µM with HeLa [2] was 75.7%; in the test with MGC-803 [6], 84.4%; with A-375 [8], 91.6%.
As to `Nc1ccccc1NC(=O)c1ccc(CSC(=S)N2CCN(CCc3ccccc3)CC2)cc1`, the figures for the inhibition at 2 µM in the test on A-375 [1], in the test on MGC-803 [4] and in the test with HeLa [7] were 26.1%, 24.8% and 21.9%, respectively. Further, the inhibition at 8 µM in the test with HeLa [2] amounted to 37%; in the test on MGC-803 [6], 53.8%; in the test with A-375 [8], 76.6%.
Consider `Nc1ccccc1NC(=O)c1ccc(CSC(=S)N2CCc3cc([N+](=O)[O-])ccc32)cc1`, for which the inhibition at 2 µM in the test with A-375 [1] was found to be 16.9%; with MGC-803 [4], 26.8%; with HeLa [7], 32.6%. The values for the inhibition at 8 µM in the test on HeLa [2], with MGC-803 [6] and in the test with A-375 [8] were 43.6%, 33.2% and 29.5%, respectively.
As to `Nc1ccccc1NC(=O)c1ccc(CSC(=S)N2CCN(C3CCCCC3)CC2)cc1`, the values for the inhibition at 2 µM with A-375 [1], in the test with MGC-803 [4] and in the test on HeLa [7] were 31.7%, 16.9% and 30.6%, respectively. Also, the figures for the inhibition at 8 µM with HeLa [2], with MGC-803 [6] and in the test on A-375 [8] were 76.1%, 75.3% and 89.9%, respectively.
With `CC1CCN(C(=S)SCc2ccc(C(=O)Nc3ccccc3N)cc2)CC1`, the values for the inhibition at 2 µM in the test on A-375 [1], in the test on MGC-803 [4] and with HeLa [7] were 32.7%, 28.1% and 46.8%, respectively. The inhibition at 8 µM in the test on HeLa [2] amounted to 72.5%; in the test with MGC-803 [6], 81.9%; in the test on A-375 [8], 87.4%.
Consider `Nc1ccccc1NC(=O)c1ccc(CSC(=S)N2CCN(c3ccc(F)cc3)CC2)cc1`, for which the inhibition at 2 µM in the test on A-375 [1] was 20.9%; in the test on MGC-803 [4], 18.8%; with HeLa [7], 60.8%. The inhibition at 8 µM was 64.5% in the test on HeLa [2], 48.7% in the test with MGC-803 [6] and 76.3% in the test on A-375 [8]. For the same compound, the half-maximal inhibitory concentration (IC50) in the test with A-375 [3] is 9.4 µM; in the test with MGC-803 [5], 17.2 µM; in the test with NCI-H1299, 0.98 µM; in the test on HCT-116, 2.73 µM; with SMMC-7721, > 32 µM.
On to `CN(Cc1ccncc1)C(=S)SCc1ccc(C(=O)Nc2ccccc2N)cc1`, for which the inhibition at 2 µM with A-375 [1] is 31.4%; in the test on MGC-803 [4], 38.1%; with HeLa [7], 29.5%. Also, the figures for the inhibition at 8 µM in the test on HeLa [2], in the test on MGC-803 [6] and in the test on A-375 [8] were 72.7%, 83.2% and 86.1%, respectively.
In the case of `Nc1ccccc1NC(=O)c1ccc(CSC(=S)N2CCN(c3cnccn3)CC2)cc1`, the results for the inhibition at 2 µM in the test with A-375 [1], with MGC-803 [4] and in the test on HeLa [7] were 29.1%, 27.1% and 70.4%, respectively. Also, the figures for the inhibition at 8 µM in the test on HeLa [2], in the test on MGC-803 [6] and in the test with A-375 [8] were 76.9%, 80.5% and 85.8%, respectively.
Consider `Nc1ccccc1NC(=O)c1ccc(CSC(=S)N2CCN(c3ncccn3)CC2)cc1`, for which the inhibition at 2 µM with A-375 [1] is 24%; with MGC-803 [4], 28.4%; in the test on HeLa [7] it was 52.2%. For the same compound, the inhibition at 8 µM with HeLa [2] amounted to 73.9%; in the test on MGC-803 [6] it was 64.8%; with A-375 [8] it was 67.9%.
